For series [1], the system named is mouse peritoneal mast cells. Kind of series: Peritoneal mast cell Fluo-4 calcium imaging, WT vs MrgprB2^MUT. It counts as cell-based. The conditions noted are these: for activation / responsiveness of peritoneal mast cells, WT vs MrgprB2^MUT: Fluo-4 imaging, concentrations per FIG. 2A, 2E, 3A, 4C, 4E, 11 legends. The protocol:
Adult male and female mice 2-5 months of age were sacrificed through CO2 inhalation. A total of 12 mls of ice cold mast cell dissociation media (MCDM; HBSS with 3% fetal bovine serum and 10 mM HEPES, pH 7.2) were used to make two sequential peritoneal lavages, which were combined and cells were spun down at 200 g. The pellet from each mouse was resuspended in 2 mls MCDM, layered over 4 mls of an isotonic 70% Percoll suspension (2.8 mls Percoll, 320 μls 10×HBSS, 40 μl 1 M HEPES, 830 μl MCDM), and spun down for 20 minutes, 500 g, 4° C. Mast cells were recovered in the pellet. Purity was >95%, as assayed by avidin staining and by morphology. Mast cells were resuspended at 5×10^5-1×10^6 cells/ml in DMEM with 10% fetal bovine serum and 25 ng/ml recombinant mouse stem cell factor (Sigma), and plated onto glass cover slips coated with 30 μg/ml fibronectin (Sigma). For counting, instead of plating, suspended mast cells were diluted 1/10 and affixed to slides by spinning at 1000 rpm for 5 minutes at 4° C. on a CytoSpin (Thermo Scientific).
For imaging, after two hours of incubation at 37° C., 5% CO2, mast cells were loaded with Fluo-4 along with 0.02% Pluronic F-127 for 30 minutes at room temperature, washed 3 times in CIB and used immediately for imaging. Cells were used within two hours of loading. Cells were identified as responding if the [Ca^2+]i rose by at least 50% for at least 10 seconds, which clearly distinguishes a ligand-induced response from random flickering events. Average traces were calculated by taking the average response from each cell in a mouse, and averaging those.

The target of series [2] is T1, MrgprB2 (Mus musculus, UniProt Q3KNA1).
T1 construct: expressed in transfected cells
T1 sequence (Q3KNA1 1-338): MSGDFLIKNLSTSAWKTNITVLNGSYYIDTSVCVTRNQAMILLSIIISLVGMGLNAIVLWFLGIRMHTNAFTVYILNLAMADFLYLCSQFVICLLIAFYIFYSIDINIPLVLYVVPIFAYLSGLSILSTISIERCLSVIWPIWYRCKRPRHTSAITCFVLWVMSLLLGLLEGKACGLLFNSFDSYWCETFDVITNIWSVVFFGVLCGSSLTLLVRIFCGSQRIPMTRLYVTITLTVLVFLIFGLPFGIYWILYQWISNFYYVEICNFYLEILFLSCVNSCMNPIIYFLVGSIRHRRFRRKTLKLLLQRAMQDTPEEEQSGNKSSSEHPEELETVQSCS
Kind of series: Calcium imaging / EC50 determination in HEK293 cells expressing MrgprB2 (MrgprB2-HEK). In kind it is cell-based. The conditions noted are these: HEK293 cells heterologously expressing MrgprB2. As to the method: In initial screens, HEK293 cells (not tested for Mycoplasma but rapidly dividing) were transiently transfected with gene constructs including a C-terminal FLAG tag, and plated on 100 μg/ml poly-D-lysine coated glass cover slips six hours after transfection. […] Later experiments utilized cell lines stably expressing receptors along with transient or stable expression of the promiscuous G protein Gα15. […] Unless otherwise specified, drugs were perfused into the chamber for 45 to 60 seconds and responses were monitored at 5-second intervals for an additional 60-90 seconds.
HEK293 cells stably expressing Galpha15 and either MrgprB2 or MrgprX2 were plated at 4×10^4 cells per well in 96-well plates and incubated overnight. […] Cells were incubated at 37° C. for 60 minutes, and allowed to recover for 15 minutes at room temperature before imaging in a Flexstation 3 (Molecular Devices). Wells were imaged according to manufacturer's specifications for 120 seconds, with 50 μl of test substances at 3× concentration added 30 seconds after imaging began. Responses were determined by subtracting the minimum signal from the maximum signal. Substances were tested in duplicate wells, the signals were averaged, and EC50s were determined for each trial by normalizing to the peak response to the substance in that trial.

In series [3] the test system is peritoneal mast cells. Kind of series: Mouse peritoneal mast cell histamine release assay. In kind it is cell-based. The conditions noted are these: WT vs MrgprB2^MUT peritoneal mast cells. As to the method:
Mast cells were purified as with the calcium imaging assay and allowed to recover for 2 hours in DMEM with 10% FBS and 25 ng/ml mouse stem cell factor in a 37° C. incubator with 5% CO2. Cells were then spun down, resuspended in CIB, counted, and plated at 300 cells/well in 75 μl CIB in 96-well plates coated with 20 μg/ml fibronectin (Sigma). They were allowed to adhere to the substrate for 45 minutes at 37° C. in atmospheric conditions (i.e. CO2 levels were not adjusted) before assay. […] After 5 minutes, 40 μl of supernatant was aspirated, diluted with 40 μl CIB and frozen at −80° C. until histamine levels were determined. Anti-IgE treatment was similar, except that cells were incubated for 30 minutes at 37° C. after anti-IgE was added before aspiration of supernatant. Histamine content was determined by using an HTRF histamine assay kit (Cisbio Assays) according to the manufacturer's instructions.

In series [4] the test system is LAD2 human mast cells. The experiment in a line: LAD2 degranulation assay (β-hexosaminidase release), with MrgprX2 siRNA knockdown. It counts as cell-based. The conditions noted are these: for β-hexosaminidase release in MrgprX2 siRNA vs control siRNA cells: compound 48/80 0.1, mastoparan 5, icatibant 10, atracurium 25, ciprofloxacin 75 μg/ml. The protocol: LAD2 cells were sensitized for 20 hours with 0.5 μg/ml biotin-conjugated human IgE (Abbiotec). Cells were washed, resuspended in Hepes buffer (10 mM HEPES, 137 mM NaCl, 2.7 mM KCl, 0.38 mM Na2HPO4.7H2O, 5.6 mM glucose, 1.8 mM CaCl2.H2O, 1.3 mM MgSO4.7H2O, 0.4% BSA, pH 7.4) at 0.025×10^6 per well, and then stimulated with 0.1 μg/ml streptavidin (Life Technologies) or other agonists at the indicated concentrations for 30 minutes at 37° C./5% CO2. The β-hexosaminidase released into the supernatants and in cell lysates was quantified by hydrolysis of p-nitrophenyl N-acetyl-β-D-glucosamide (Sigma-Aldrich) in 0.1 M sodium citrate buffer (pH 4.5) for 90 minutes at 37° C. The percentage of β-hexosaminidase release was calculated as a percent of total content.
LAD2 cells were washed with medium, suspended at 0.5×10^6 cells per well, and transfected with 100 nm MrgprX2 siRNA and control siRNA in antibiotic-free StemPro medium using Lipofectamine 3000 (Life Technologies) according to the manufacturer's instruction at 37° C./5% CO2. At 48 hours, knockdown was confirmed by reverse-transcriptase PCR, and the cells were used for degranulation assays.

A short description of series [5]: Drug preparation and storage observations. It counts as physicochemical. The protocol:
Propranolol also was prepared fresh on the day of the experiment to minimize the chances of a loss in potency. All fluoroquinolones except levofloxacin were dissolved into CIB adjusted to pH 3.5. All other drugs were prepared as 100×-1000× aliquots and stored at −80° C. before thawing at 4° C. and diluting into calcium imaging buffer or saline.

Series [6] has as its system WT and MrgprB2^MUT mice. Kind of series: Hindpaw swelling and Evans Blue extravasation. The conditions noted are these: icatibant intraplantar after ketotifen i.p. pretreatment (25 μl of 10 mg/ml), n=4. In kind it is in vivo, mouse. The protocol: Adult male mice up to 8 months of age were anesthetized with an i.p. injection of 50 mg/kg pentobarbital (Sigma). 15 minutes after induction of anesthesia, mice were injected i.v. with 50 μl of 12.5 mg/ml Evans Blue (Sigma) in saline. 5 minutes later, 5 μl of the test substance (or 7 μl of anti-IgE) was administered by intraplantar injection in one paw and saline was administered in the other paw. Paw thickness was measured by calipers immediately after injection. 15 minutes later (30 minutes after anti-IgE), paw thickness was measured again and mice were sacrificed by decapitation. Paw tissue was collected, dried for 24 hours at 50° C., and weighed. Evans Blue was extracted by a 24 hour incubation in formamide at 50° C., and the O.D. was read at 620 nm using a spectrophotometer. For studies using ketotifen, mice were injected i.p. with 25 μl of a 10 mg/ml solution of ketotifen at the same time as pentobarbital.

“Also recorded” adds a separate entry of the source.

Take `CC(C)C[C@H](NC(=O)[C@H](C)NC(=O)[C@H](Cc1c[nH]c2ccccc12)NC(=O)[C@H](CCCCN)NC(=O)[C@H](CC(N)=O)NC(=O)[C@H](Cc1c[nH]c2ccccc12)NC(=O)[C@H](CCCCN)NC(=O)[C@H](CCCCN)NC(=O)[C@H](CCCNC(=N)N)NC(=O)[C@@H](N)Cc1ccccc1)C(=O)N[C@@H](CO)C(=O)N[C@@H](CCCNC(=N)N)C(N)=O` [PAMP (9-20)]: the “activation / responsiveness of peritoneal mast cells, WT vs MrgprB2^MUT” value (from here on “activation / responsiveness … vs MrgprB2^MUT”) in series [1] is “strongly activated WT but not MrgprB2^MUT mast cells”. For the same compound, the “response of MrgprB2-HEK cells ([Ca2+]i)” value in series [2] was “responded”. With `CSCC[C@H](NC(=O)[C@H](CC(C)C)NC(=O)CNC(=O)[C@H](Cc1ccccc1)NC(=O)[C@H](Cc1ccccc1)NC(=O)[C@H](CCC(N)=O)NC(=O)[C@H](CCC(N)=O)NC(=O)[C@@H]1CCCN1C(=O)[C@H](CCCCN)NC(=O)[C@@H]1CCCN1C(=O)[C@@H](N)CCCNC(=N)N)C(N)=O` [Substance P], the “response of MrgprB2-HEK cells ([Ca2+]i)” value in series [2] is reported as “responded”. For the compound `COc1ccc(CC2c3cc(OC)c(OC)cc3CC[N+]2(C)CCC(=O)OCCCCCOC(=O)CC[N+]2(C)CCc3cc(OC)c(OC)cc3C2Cc2ccc(OC)c(OC)c2)cc1OC` (stereo not drawn) [atracurium], the “histamine release from WT peritoneal mast cells (MrgprB2^MUT released substantially less)” value in series [3] was “induced histamine release”. For the same compound, the “β-hexosaminidase release in MrgprX2 siRNA vs control siRNA cells” value in series [4] is reported as “significantly reduced”. The “stability of potency of solutions” value in series [5] was “susceptible to oxidation and/or freeze-thaw effects”. As for `CCN(CC)CCCC(C)Nc1ccnc2cc(Cl)ccc12` (stereo not drawn) [chloroquine], in series [2], the “response of MrgprB2-HEK cells ([Ca2+]i)” value is “no response”. Regarding `CC[C@H](C)[C@H](NC(=O)[C@H](CC(=O)O)NC(=O)[C@H](CC(C)C)NC(=O)[C@H](Cc1c[nH]cn1)NC(=O)[C@@H]1CSSC[C@H](N)C(=O)N[C@@H](CO)C(=O)N[C@H]2CSSC[C@H](NC(=O)[C@H](CCC(=O)O)NC(=O)[C@H](CCCCN)NC(=O)[C@H](CC(=O)O)NC(=O)[C@H](CCSC)NC(=O)[C@H](CC(C)C)NC(=O)[C@H](CO)NC(=O)[C@H](CO)NC2=O)C(=O)N[C@@H](C(C)C)C(=O)N[C@@H](Cc2ccc(O)cc2)C(=O)N[C@@H](Cc2ccccc2)C(=O)N1)C(=O)N[C@H](C(=O)N[C@@H](Cc1c[nH]c2ccccc12)C(=O)O)[C@@H](C)CC` [endothelin], the “activation / responsiveness … vs MrgprB2^MUT” value in series [1] is listed as “comparable”; in series [1] (listed as Endothelin) it was “not significantly different”. In the case of `CN1CCC(=C2c3ccccc3CC(=O)c3sccc32)CC1` [ketotifen], the “increase in paw thickness, with ketotifen” value in series [6] came out at 3.1±0.6%.

On to `CC[C@H](C)[C@H](N)C(=O)N[C@@H](CC(N)=O)C(=O)N[C@@H](CC(C)C)C(=O)N[C@@H](CCCCN)C(=O)N[C@@H](C)C(=O)N[C@@H](CC(C)C)C(=O)N[C@@H](C)C(=O)N[C@@H](C)C(=O)N[C@@H](CC(C)C)C(=O)N[C@@H](C)C(=O)N[C@@H](CCCCN)C(=O)N[C@@H](CCCCN)C(=O)N[C@H](C(=O)N[C@@H](CC(C)C)C(N)=O)[C@@H](C)CC` [mastoparan], for which the “histamine release from WT peritoneal mast cells (MrgprB2^MUT released substantially less)” value in series [3] is given as “induced histamine release”. For the same compound, the “β-hexosaminidase release in MrgprX2 siRNA vs control siRNA cells” value in series [4] is listed as “significantly reduced”.

As for `COc1cc2c(cc1OC)[C@@H](Cc1cc(OC)c(OC)c(OC)c1)[N+](C)(CCCOC(=O)CC/C=C/CCC(=O)OCCC[N+]1(C)CCc3cc(OC)c(OC)cc3[C@H]1Cc1cc(OC)c(OC)c(OC)c1)CC2` (stereo partly drawn) [mivacurium], the “stability of potency of solutions” value in series [5] is “susceptible to oxidation and/or freeze-thaw effects”. For `COc1cc2c3cc1Oc1cc(ccc1O)C[C@@H]1c4c(cc(OC)c(O)c4Oc4ccc(cc4)C[C@@H]3N(C)CC2)CC[N+]1(C)C` [tubocurarine], the “stability of potency of solutions” value in series [5] is “susceptible to oxidation and/or freeze-thaw effects”. As to “BAMS-22: MrgprX1 and MrgprC11 agonist Bovine Adrenal Medulla derived peptide, fragment 8-22 (VGRPEWWMDYQKRYG)”, in series [1] (500 nM, Fluo-4, p=0.39), the “percentages of peritoneal mast cells responding, differences” value is “not significant”. Turning to cortistatin, the “activation / responsiveness … vs MrgprB2^MUT” value in series [1] was “strongly activated WT but not MrgprB2^MUT mast cells”. For the compound “insulin: Recombinant human insulin from Roche, negative control”, in series [1], the “activation / responsiveness … vs MrgprB2^MUT” value is given as “had no effect; also recorded: not significant”. Turning to “streptavidin: stimulus for biotin-conjugated human IgE sensitized LAD2 cells”, the β-hexosaminidase release in series [4] (0.1 μg/ml streptavidin, biotin-conjugated human IgE sensitized LAD2 cells) was determined as 71.3±1.8 % release.

Source of the values: patent US10696971B2, “MrgprX2/MrgprB2 expressing cell based assay to detect pseudo-allergic drug reactions and to identify blockers to prevent the adverse reactions” (The Johns Hopkins University, priority 2014, dated 2020).
